Measurements taken from ChEMBL document CHEMBL5034040, “Amide-to-Ester Substitution as a Strategy for Optimizing PROTAC Permeability and Cellular Activity” (J Med Chem, 2021).

Experiment: Permeability of the compound in PBS at pH 7.4 after 16 hrs by PAMPA
Type: ADME
Conditions: read-out: Peff

| Papp at 16 h | Structure (SMILES) |
| --- | --- |
| 0.2 ×10⁻⁶ cm/s | Cc1ncsc1-c1ccc([C@H](C)NC(=O)[C@@H]2C[C@@H](O)CN2C(=O)[C@@H](NC(=O)COCCCOCCNC(=O)C[C@@H]2N=C(c3ccc(Cl)cc3)c3c(sc(C)c3C)-n3c(C)nnc32)C(C)(C)C)cc1 |
| 0.01 ×10⁻⁶ cm/s | Cc1ncsc1-c1ccc(CNC(=O)[C@@H]2C[C@@H](O)CN2C(=O)[C@@H](NC(=O)COCCOCCOCCNC(=O)C[C@@H]2N=C(c3ccc(Cl)cc3)c3c(sc(C)c3C)-n3c(C)nnc32)C(C)(C)C)cc1 |
